According to ChEMBL document CHEMBL5715260, “Selectivity Literature for EUbOPEN Chemogenomic Library” (2024):
Values belong to the molecule of their own block, whether it stands above or below them.

Assays:
Design in all cases: recommended concentration 1 uM
[1] = biological target: Nuclear receptor subfamily 4immunitygroup A member 1 (Homo sapiens) (UniProt P22736); assay: Selectivity interaction (Reporter gene assay) EUB0000566a NR4A1
[2] = biological target: Steroidogenic factor 1 (Homo sapiens) (UniProt Q13285); assay: Selectivity interaction (Reporter gene assay) EUB0000566a NR5A1
[3] = biological target: T1, Retinoic acid receptor RXR-alpha (Homo sapiens) (UniProt P19793); assay: Selectivity interaction (Reporter gene assay) EUB0000566a RXRA
T1 sequence (whole entry): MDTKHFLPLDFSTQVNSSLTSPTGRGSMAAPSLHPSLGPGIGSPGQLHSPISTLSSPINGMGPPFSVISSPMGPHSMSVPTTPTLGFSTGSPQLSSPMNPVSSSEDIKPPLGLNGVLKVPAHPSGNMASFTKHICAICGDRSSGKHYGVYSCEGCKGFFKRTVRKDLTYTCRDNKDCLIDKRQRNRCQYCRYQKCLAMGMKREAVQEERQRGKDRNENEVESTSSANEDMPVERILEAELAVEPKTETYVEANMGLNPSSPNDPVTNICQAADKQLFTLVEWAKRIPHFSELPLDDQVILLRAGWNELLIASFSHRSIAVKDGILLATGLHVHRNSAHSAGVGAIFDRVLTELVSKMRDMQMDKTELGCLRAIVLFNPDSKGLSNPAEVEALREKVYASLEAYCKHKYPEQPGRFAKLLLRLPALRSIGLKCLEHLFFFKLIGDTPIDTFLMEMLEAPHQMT

[4] = biological target: T2, Nuclear receptor subfamily 2 group C member 1 (Homo sapiens) (UniProt P13056); assay: Selectivity interaction (Reporter gene assay) EUB0000566a NR2C1
T2 sequence (whole entry): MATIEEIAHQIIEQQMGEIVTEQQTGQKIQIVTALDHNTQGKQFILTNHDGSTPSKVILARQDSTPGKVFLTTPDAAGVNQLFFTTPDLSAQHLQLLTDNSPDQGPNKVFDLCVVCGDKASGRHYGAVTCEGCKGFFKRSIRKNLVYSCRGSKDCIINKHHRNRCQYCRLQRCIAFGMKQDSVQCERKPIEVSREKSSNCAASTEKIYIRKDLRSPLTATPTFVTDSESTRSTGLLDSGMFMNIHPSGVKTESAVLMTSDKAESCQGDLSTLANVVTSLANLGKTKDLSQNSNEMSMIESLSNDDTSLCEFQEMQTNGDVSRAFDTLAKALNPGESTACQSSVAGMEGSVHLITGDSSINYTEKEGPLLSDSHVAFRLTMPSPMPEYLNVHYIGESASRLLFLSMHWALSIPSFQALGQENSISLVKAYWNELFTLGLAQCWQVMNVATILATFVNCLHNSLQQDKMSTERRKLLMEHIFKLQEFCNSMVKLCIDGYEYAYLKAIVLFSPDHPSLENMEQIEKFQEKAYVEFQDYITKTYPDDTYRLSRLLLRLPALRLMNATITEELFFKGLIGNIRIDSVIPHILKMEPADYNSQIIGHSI

[5] = biological target: Nuclear receptor subfamily 2 group E member 1 (Homo sapiens) (UniProt Q9Y466); assay: Selectivity interaction (Reporter gene assay) EUB0000566a NR2E1
[6] = biological target: T3, Alpha trans-inducing protein (Human alphaherpesvirus 1) (UniProt A0A5J6DW59); assay: Selectivity interaction (Reporter gene assay) EUB0000566a UL48
[7] = biological target: T4, Hepatocyte nuclear factor 4-alpha (Homo sapiens) (UniProt P41235); assay: Selectivity interaction (Reporter gene assay) EUB0000566a HNF4A
T4 sequence (whole entry): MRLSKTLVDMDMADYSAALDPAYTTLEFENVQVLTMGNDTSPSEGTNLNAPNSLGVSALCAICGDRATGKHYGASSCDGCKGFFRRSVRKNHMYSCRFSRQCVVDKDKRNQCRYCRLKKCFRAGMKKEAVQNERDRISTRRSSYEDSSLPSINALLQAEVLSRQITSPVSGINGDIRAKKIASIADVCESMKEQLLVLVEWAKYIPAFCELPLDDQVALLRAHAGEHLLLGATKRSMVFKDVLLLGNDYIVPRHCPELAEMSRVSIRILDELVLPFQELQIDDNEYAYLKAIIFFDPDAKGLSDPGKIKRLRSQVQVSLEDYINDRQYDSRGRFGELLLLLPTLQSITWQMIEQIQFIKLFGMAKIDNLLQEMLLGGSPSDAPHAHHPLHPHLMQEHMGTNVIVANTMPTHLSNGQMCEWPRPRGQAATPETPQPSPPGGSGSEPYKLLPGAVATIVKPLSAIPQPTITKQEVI

[8] = biological target: Nuclear receptor subfamily 4immunitygroup A member 1 (Homo sapiens) (UniProt P22736); assay: Selectivity interaction (Reporter gene assay) EUB0000551aCl NR4A1
[9] = biological target: T1, Retinoic acid receptor RXR-alpha (Homo sapiens); assay: Selectivity interaction (Reporter gene assay) EUB0000551aCl RXRA; settings: reference bexarotene 1 uM, Selectivity number of off-targets 0.0, Selectivity number of targets 1.0, Source Knowledge inhouse
[10] = biological target: T4, Hepatocyte nuclear factor 4-alpha (Homo sapiens); assay: Selectivity interaction (Reporter gene assay) EUB0000551aCl HNF4A
[11] = biological target: Steroidogenic factor 1 (Homo sapiens) (UniProt Q13285); assay: Selectivity interaction (Reporter gene assay) EUB0000551aCl NR5A1
[12] = biological target: Nuclear receptor subfamily 2 group E member 1 (Homo sapiens) (UniProt Q9Y466); assay: Selectivity interaction (Reporter gene assay) EUB0000551aCl NR2E1
[13] = biological target: T2, Nuclear receptor subfamily 2 group C member 1 (Homo sapiens); assay: Selectivity interaction (Reporter gene assay) EUB0000551aCl NR2C1
[14] = biological target: T3, Alpha trans-inducing protein (Human alphaherpesvirus 1); assay: Selectivity interaction (Reporter gene assay) EUB0000551aCl UL48
[15] = biological target: T2, Nuclear receptor subfamily 2 group C member 1 (Homo sapiens); assay: Selectivity interaction (Reporter gene assay) EUB0000564a NR2C1
[16] = biological target: T4, Hepatocyte nuclear factor 4-alpha (Homo sapiens); assay: Selectivity interaction (Reporter gene assay) EUB0000564a HNF4A
[17] = biological target: Nuclear receptor subfamily 4immunitygroup A member 1 (Homo sapiens) (UniProt P22736); assay: Selectivity interaction (Reporter gene assay) EUB0000564a NR4A1
[18] = biological target: Steroidogenic factor 1 (Homo sapiens) (UniProt Q13285); assay: Selectivity interaction (Reporter gene assay) EUB0000564a NR5A1
[19] = biological target: Nuclear receptor subfamily 2 group E member 1 (Homo sapiens) (UniProt Q9Y466); assay: Selectivity interaction (Reporter gene assay) EUB0000564a NR2E1
[20] = biological target: T3, Alpha trans-inducing protein (Human alphaherpesvirus 1); assay: Selectivity interaction (Reporter gene assay) EUB0000564a UL48
[21] = biological target: T1, Retinoic acid receptor RXR-alpha (Homo sapiens); assay: Selectivity interaction (Reporter gene assay) EUB0000564a RXRA; settings: reference bexarotene 1 uM, Selectivity number of off-targets 0.0, Selectivity number of targets 1.0, Source Knowledge inhouse
[22] = biological target: T3, Alpha trans-inducing protein (Human alphaherpesvirus 1); assay: Selectivity interaction (Reporter gene assay) EUB0000570a UL48
[23] = biological target: Nuclear receptor subfamily 2 group E member 1 (Homo sapiens) (UniProt Q9Y466); assay: Selectivity interaction (Reporter gene assay) EUB0000570a NR2E1
[24] = biological target: T1, Retinoic acid receptor RXR-alpha (Homo sapiens); assay: Selectivity interaction (Reporter gene assay) EUB0000570a RXRA; settings: reference bexarotene 1 uM, Selectivity number of off-targets 0.0, Selectivity number of targets 1.0, Source Knowledge inhouse
[25] = biological target: T2, Nuclear receptor subfamily 2 group C member 1 (Homo sapiens); assay: Selectivity interaction (Reporter gene assay) EUB0000570a NR2C1
[26] = biological target: Steroidogenic factor 1 (Homo sapiens) (UniProt Q13285); assay: Selectivity interaction (Reporter gene assay) EUB0000570a NR5A1
[27] = biological target: T4, Hepatocyte nuclear factor 4-alpha (Homo sapiens); assay: Selectivity interaction (Reporter gene assay) EUB0000570a HNF4A
[28] = biological target: Nuclear receptor subfamily 4immunitygroup A member 1 (Homo sapiens) (UniProt P22736); assay: Selectivity interaction (Reporter gene assay) EUB0000570a NR4A1
[29] = biological target: T4, Hepatocyte nuclear factor 4-alpha (Homo sapiens); assay: Selectivity interaction (Reporter gene assay) EUB0000563a HNF4A
[30] = biological target: T2, Nuclear receptor subfamily 2 group C member 1 (Homo sapiens); assay: Selectivity interaction (Reporter gene assay) EUB0000563a NR2C1
[31] = biological target: T1, Retinoic acid receptor RXR-alpha (Homo sapiens); assay: Selectivity interaction (Reporter gene assay) EUB0000563a RXRA; settings: reference bexarotene 1 uM, Selectivity number of off-targets 0.0, Selectivity number of targets 1.0, Source Knowledge inhouse
[32] = biological target: Steroidogenic factor 1 (Homo sapiens) (UniProt Q13285); assay: Selectivity interaction (Reporter gene assay) EUB0000563a NR5A1
[33] = biological target: Nuclear receptor subfamily 4immunitygroup A member 1 (Homo sapiens) (UniProt P22736); assay: Selectivity interaction (Reporter gene assay) EUB0000563a NR4A1
[34] = biological target: T3, Alpha trans-inducing protein (Human alphaherpesvirus 1); assay: Selectivity interaction (Reporter gene assay) EUB0000563a UL48
[35] = biological target: Nuclear receptor subfamily 2 group E member 1 (Homo sapiens) (UniProt Q9Y466); assay: Selectivity interaction (Reporter gene assay) EUB0000563a NR2E1

Chain of Nuclear receptor subfamily 2 group E member 1 (Homo sapiens) (Q9Y466 whole entry): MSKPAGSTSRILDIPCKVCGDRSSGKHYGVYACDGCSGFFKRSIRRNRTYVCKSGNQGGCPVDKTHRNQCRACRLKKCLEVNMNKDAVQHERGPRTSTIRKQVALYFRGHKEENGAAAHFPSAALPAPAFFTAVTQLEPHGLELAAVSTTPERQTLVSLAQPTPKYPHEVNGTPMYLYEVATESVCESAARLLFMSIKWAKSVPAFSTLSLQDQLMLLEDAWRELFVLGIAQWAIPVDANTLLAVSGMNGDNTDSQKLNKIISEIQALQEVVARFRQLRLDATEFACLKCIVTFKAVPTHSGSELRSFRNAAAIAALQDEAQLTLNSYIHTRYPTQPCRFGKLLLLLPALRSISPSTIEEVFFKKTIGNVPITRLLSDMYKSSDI
T3 sequence (A0A5J6DW59 as listed by the source): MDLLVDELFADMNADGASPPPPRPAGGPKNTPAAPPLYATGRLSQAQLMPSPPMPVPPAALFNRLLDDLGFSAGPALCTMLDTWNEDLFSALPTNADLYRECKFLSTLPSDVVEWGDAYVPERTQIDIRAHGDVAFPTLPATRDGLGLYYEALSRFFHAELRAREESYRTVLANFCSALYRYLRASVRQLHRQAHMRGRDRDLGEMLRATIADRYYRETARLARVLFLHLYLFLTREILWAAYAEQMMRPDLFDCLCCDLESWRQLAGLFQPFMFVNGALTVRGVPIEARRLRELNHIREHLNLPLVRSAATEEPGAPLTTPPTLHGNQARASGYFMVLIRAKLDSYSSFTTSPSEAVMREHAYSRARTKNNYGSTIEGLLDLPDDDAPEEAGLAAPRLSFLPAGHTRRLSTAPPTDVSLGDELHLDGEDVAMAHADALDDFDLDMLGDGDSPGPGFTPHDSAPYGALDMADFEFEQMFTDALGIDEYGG
Chain of Steroidogenic factor 1 (Homo sapiens) (Q13285 whole entry): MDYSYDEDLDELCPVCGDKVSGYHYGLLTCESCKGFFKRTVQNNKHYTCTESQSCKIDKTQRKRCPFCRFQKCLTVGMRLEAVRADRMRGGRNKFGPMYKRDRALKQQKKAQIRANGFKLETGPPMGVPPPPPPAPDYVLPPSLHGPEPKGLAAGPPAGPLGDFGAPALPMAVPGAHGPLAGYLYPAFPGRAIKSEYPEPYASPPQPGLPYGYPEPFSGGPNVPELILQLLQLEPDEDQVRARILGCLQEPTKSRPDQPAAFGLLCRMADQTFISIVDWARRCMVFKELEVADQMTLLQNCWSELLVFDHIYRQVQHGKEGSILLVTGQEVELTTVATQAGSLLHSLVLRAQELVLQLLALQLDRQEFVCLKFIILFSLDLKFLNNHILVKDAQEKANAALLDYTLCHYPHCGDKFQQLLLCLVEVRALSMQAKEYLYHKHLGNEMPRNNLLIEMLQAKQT
Chain of Nuclear receptor subfamily 4immunitygroup A member 1 (Homo sapiens) (P22736 whole entry): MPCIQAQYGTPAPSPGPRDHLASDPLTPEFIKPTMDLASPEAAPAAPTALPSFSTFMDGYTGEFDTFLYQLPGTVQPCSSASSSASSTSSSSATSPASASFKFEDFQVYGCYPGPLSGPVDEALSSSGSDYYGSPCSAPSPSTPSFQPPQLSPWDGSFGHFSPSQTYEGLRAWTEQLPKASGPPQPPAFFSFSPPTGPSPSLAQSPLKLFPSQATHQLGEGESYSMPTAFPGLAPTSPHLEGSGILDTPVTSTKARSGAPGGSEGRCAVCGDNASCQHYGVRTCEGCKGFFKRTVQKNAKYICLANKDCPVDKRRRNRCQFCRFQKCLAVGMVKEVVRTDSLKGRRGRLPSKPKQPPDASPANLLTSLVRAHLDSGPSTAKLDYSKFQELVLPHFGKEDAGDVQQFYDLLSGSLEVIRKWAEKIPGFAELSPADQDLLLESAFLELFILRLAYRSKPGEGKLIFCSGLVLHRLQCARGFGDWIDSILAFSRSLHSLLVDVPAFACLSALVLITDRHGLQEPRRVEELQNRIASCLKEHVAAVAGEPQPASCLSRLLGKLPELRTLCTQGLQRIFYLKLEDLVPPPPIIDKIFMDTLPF

Structure (SMILES): Cc1cccc(CN2CCN(C(c3ccccc3)c3ccc(Cl)cc3)CC2)c1 (stereo not given)
Fold activation [8]: 1.12
Relative activation [9]: 0.534%
Fold activation [10]: 1
Remaining activity [11]: 0.814
Fold activation [12]: 1.01
Fold activation [13]: 1.14
P-value [14]: 0.00398

Structure (SMILES): CN(CCOc1ccc(C[C@H](Nc2ccccc2C(=O)c2ccccc2)C(=O)O)cc1)c1ccccn1
P-value [22]: 1.12e-05
Remaining activity [23]: 0.776
Relative activation [24]: 0.731%
Fold activation [25]: 1.03
Remaining activity [26]: 0.849
Remaining activity [27]: 0.831
Remaining activity [28]: 0.85

Structure (SMILES): CCOC(=O)c1ccc(C#Cc2ccc3c(c2)C(C)(C)CCS3)nc1
Remaining activity [29]: 0.921
Remaining activity [30]: 0.92
Relative activation [31]: 0.694%
Remaining activity [32]: 0.803
Remaining activity [33]: 0.9
P-value [34]: 0.00141
Remaining activity [35]: 0.703

Second part, the molecule after the results:

Fold activation [1]: 1.31
Remaining activity [2]: 0.902
Relative activation [3]: 0.52%
Remaining activity [4]: 0.903
Remaining activity [5]: 0.763
P-value [6]: 2.26e-06
Fold activation [7]: 0.997
Structure (SMILES): CC1(C)CCC(C)(C)c2cc(NC(=O)c3ccc(C(=O)O)cc3)ccc21

Fold activation [15]: 1.03
Fold activation [16]: 1
Fold activation [17]: 1.11
Remaining activity [18]: 0.896
Remaining activity [19]: 0.926
P-value [20]: 0.00282
Relative activation [21]: 0.848%
Structure (SMILES): COc1ccc(-c2ccc3cc(C(=O)O)ccc3c2)cc1C12CC3CC(CC(C3)C1)C2
